Here are results for three compounds from PubChem BioAssay AID1259407 (Chemical Carcinogenesis Research Information System (CCRIS), 2018).

Calls of active or inactive are those of the source. How the calls were made is not given here.

The subject of the series is CCRIS mutagenicity, Ames/micronucleus/aberration tests. The experiment in a line: CCRIS mutagenicity studies. The settings on record: Test System: AMES SALMONELLA TYPHIMURIUM
Where [1] appears, read: Strain/Indicator: TA1535, Metabolic Activation: NONE, Method: PREINCUBATION

With `Cc1cccc(Br)c1`, the mutagenic call reads like this: (Strain/Indicator: TA97, Metabolic Activation: HAMSTER, LIVER, S-9, AROCLOR 1254 (10%), Method: PREINCUBATION) “inactive; negative”; (Strain/Indicator: TA97, Metabolic Activation: HAMSTER, LIVER, S-9, AROCLOR 1254 (30%), Method: PREINCUBATION) “inactive; negative”; (Strain/Indicator: TA97, Metabolic Activation: NONE, Method: PREINCUBATION) “inactive; negative”; (Strain/Indicator: TA97, Metabolic Activation: RAT, LIVER, S-9, AROCLOR 1254 (10%), Method: PREINCUBATION) “inactive; negative”; (Strain/Indicator: TA97, Metabolic Activation: RAT, LIVER, S-9, AROCLOR 1254 (30%), Method: PREINCUBATION) “inactive; negative”; (Strain/Indicator: TA98, Metabolic Activation: HAMSTER, LIVER, S-9, AROCLOR 1254 (10%), Method: PREINCUBATION) “inactive; negative”. Moreover, the mutagenic call was “inactive; negative” (Strain/Indicator: TA98, Metabolic Activation: HAMSTER, LIVER, S-9, AROCLOR 1254 (30%), Method: PREINCUBATION); “inactive; negative” (Strain/Indicator: TA98, Metabolic Activation: NONE, Method: PREINCUBATION); “inactive; negative” (Strain/Indicator: TA98, Metabolic Activation: RAT, LIVER, S-9, AROCLOR 1254 (10%), Method: PREINCUBATION); “inactive; negative” (Strain/Indicator: TA98, Metabolic Activation: RAT, LIVER, S-9, AROCLOR 1254 (30%), Method: PREINCUBATION); “inactive; negative” (Strain/Indicator: TA100, Metabolic Activation: HAMSTER, LIVER, S-9, AROCLOR 1254 (10%), Method: PREINCUBATION); “inactive; negative” (Strain/Indicator: TA100, Metabolic Activation: HAMSTER, LIVER, S-9, AROCLOR 1254 (30%), Method: PREINCUBATION). Also, the mutagenic call runs as follows: (Strain/Indicator: TA100, Metabolic Activation: NONE, Method: PREINCUBATION) “inactive; negative”; (Strain/Indicator: TA100, Metabolic Activation: RAT, LIVER, S-9, AROCLOR 1254 (10%), Method: PREINCUBATION) “inactive; negative”; (Strain/Indicator: TA100, Metabolic Activation: RAT, LIVER, S-9, AROCLOR 1254 (30%), Method: PREINCUBATION) “inactive; negative”; (Strain/Indicator: TA1535, Metabolic Activation: HAMSTER, LIVER, S-9, AROCLOR 1254 (10%), Method: PREINCUBATION) “inactive; negative”; (Strain/Indicator: TA1535, Metabolic Activation: HAMSTER, LIVER, S-9, AROCLOR 1254 (30%), Method: PREINCUBATION) “inactive; negative”; under setting [1], “inactive; negative”. In addition, the mutagenic call runs as follows: (Strain/Indicator: TA1535, Metabolic Activation: RAT, LIVER, S-9, AROCLOR 1254 (10%), Method: PREINCUBATION) “inactive; negative”; (Strain/Indicator: TA1535, Metabolic Activation: RAT, LIVER, S-9, AROCLOR 1254 (30%), Method: PREINCUBATION) “inactive; negative”; (Strain/Indicator: TA1537, Metabolic Activation: HAMSTER, LIVER, S-9, AROCLOR 1254 (30%), Method: PREINCUBATION) “inactive; negative”; (Strain/Indicator: TA1537, Metabolic Activation: NONE, Method: PREINCUBATION) “inactive; negative”; (Strain/Indicator: TA1537, Metabolic Activation: RAT, LIVER, S-9, AROCLOR 1254 (30%), Method: PREINCUBATION) “inactive; negative”.
Consider `C=C(CN(C)C)C(=O)c1ccccc1`, for which the mutagenic call by setting is: (Strain/Indicator: TA97A, Metabolic Activation: NONE, Method: SPOT TEST) “inactive; negative”; (Strain/Indicator: TA97A, Metabolic Activation: RAT LIVER S-9, Method: SPOT TEST) “inactive; negative”; (Strain/Indicator: TA98, Metabolic Activation: NONE, Method: SPOT TEST) “inactive; negative”; (Strain/Indicator: TA98, Metabolic Activation: RAT LIVER S-9, Method: SPOT TEST) “inactive; negative”; (Strain/Indicator: TA100, Metabolic Activation: NONE, Method: SPOT TEST) “inactive; negative”; (Strain/Indicator: TA100, Metabolic Activation: RAT LIVER S-9, Method: SPOT TEST) “active; positive”. Also, the mutagenic call is “inactive; negative” (Strain/Indicator: TA102, Metabolic Activation: NONE, Method: SPOT TEST); “inactive; negative” (Strain/Indicator: TA102, Metabolic Activation: RAT LIVER S-9, Method: SPOT TEST); “inactive; negative” (Strain/Indicator: TA104, Metabolic Activation: NONE, Method: SPOT TEST); “inactive; negative” (Strain/Indicator: TA104, Metabolic Activation: RAT LIVER S-9, Method: SPOT TEST); “inactive; negative” (Strain/Indicator: TA1535, Metabolic Activation: NONE, Method: SPOT TEST); “inactive; negative” (Strain/Indicator: TA1538, Metabolic Activation: NONE, Method: SPOT TEST).
Take `CCCCN(CCCCO)N=O`: the mutagenic call is “inactive; negative” under setting [1]; “inactive; negative” (Strain/Indicator: TA1535, Metabolic Activation: RAT, LIVER, HEPATOCYTES, Method: PREINCUBATION); “active; positive” (Strain/Indicator: TA1535, Metabolic Activation: RAT, LIVER, S-9, AROCLOR, Method: PREINCUBATION); “active; positive” (Strain/Indicator: TA1535, Metabolic Activation: RAT, LIVER, S-9, KC500 OR PHENOBARBITAL, Method: LIQUID SUSPENSION); “active; positive” (Strain/Indicator: TA1535, Metabolic Activation: RAT, LIVER, S-9, SODIUM PHENOBARBITONE, Method: PREINCUBATION); “inactive; negative” (Strain/Indicator: TA1535, Metabolic Activation: RAT, LIVER, S-9, Method: PREINCUBATION).
